Results reported in PMC9319939, “Siccanin Is a Dual-Target Inhibitor of Plasmodium falciparum Mitochondrial Complex II and Complex III” (Pharmaceuticals, 2022).

Key:
P. falciparum complex II = P. falciparum complex II (Plasmodium falciparum, UniProt Q8I5S5+Q8IJU2); experiment: succinate:ubiquinone reductase (SQR) activity, crude mitochondrial fraction, DCIP reduction; type: biochemical; details: siccanin 10 μM; read-out: Relative residual activity of SQR
Description: (§1) A synchronized parasite culture was grown for 64 h and a crude mitochondrial fraction was prepared from trophozoite-stage cells (as confirmed by Giemsa staining). Infected red blood cells were collected by centrifugation at 800× g for 5 min at 4 °C and incubated for 5 min at room temperature with 40 mL of 0.075% (w/v) saponin in AIM buffer (120 mM KCl, 20 mM NaCl, 10 mM PIPES (1,4-piperazinediethanesulfonic acid) buffer [pH 6.7], 1 mM MgCl2, 5 mM glucose). Released parasites were collected by centrifugation at 2780× g for 7 min at 4 °C and washed three times with AIM buffer. […]
(§2) Complex II, DHODH, MQO, NDH2, G3PDH, and dihydroorotate-cytochrome c (DHO-cyt c) reductase activities were measured, as described previously, using a V-660 spectrophotometer (JASCO; Tokyo, Japan). Briefly, complex II activity was measured at 25 °C in a 1 mL reaction mixture containing 45 μM 2,6-dichlorophenolidophenol (DCIP), 100 μM ubiquinone-2 (UQ2), and 2 mM KCN in 50 mM potassium phosphate buffer, pH 8.0. DHODH, MQO, and G3PDH activities were measured at 25 °C in 1 mL of the reaction mixture containing 45 μM DCIP, 100 μM UQ2, and 2 mM KCN in 30 mM Tris-HCl buffer, pH 8.0. […] NDH2 activity was measured at 25 °C in 1 mL of the reaction mixture containing 100 µM UQ1 and 2 mM KCN in 50 mM potassium phosphate buffer, pH 8.0. […]

[1] = biological target: T1, dihydroorotate dehydrogenase (DHODH) (Plasmodium falciparum, UniProt Q08210); experiment: DHODH activity, crude mitochondrial fraction, DCIP reduction; type: biochemical
T1 construct: used as crude mitochondrial fraction for all enzymatic assays; endogenous in cells; host or cells: P. falciparum 3D7 trophozoite-stage parasites, crude mitochondrial fraction
T1 sequence (Q08210 24-569): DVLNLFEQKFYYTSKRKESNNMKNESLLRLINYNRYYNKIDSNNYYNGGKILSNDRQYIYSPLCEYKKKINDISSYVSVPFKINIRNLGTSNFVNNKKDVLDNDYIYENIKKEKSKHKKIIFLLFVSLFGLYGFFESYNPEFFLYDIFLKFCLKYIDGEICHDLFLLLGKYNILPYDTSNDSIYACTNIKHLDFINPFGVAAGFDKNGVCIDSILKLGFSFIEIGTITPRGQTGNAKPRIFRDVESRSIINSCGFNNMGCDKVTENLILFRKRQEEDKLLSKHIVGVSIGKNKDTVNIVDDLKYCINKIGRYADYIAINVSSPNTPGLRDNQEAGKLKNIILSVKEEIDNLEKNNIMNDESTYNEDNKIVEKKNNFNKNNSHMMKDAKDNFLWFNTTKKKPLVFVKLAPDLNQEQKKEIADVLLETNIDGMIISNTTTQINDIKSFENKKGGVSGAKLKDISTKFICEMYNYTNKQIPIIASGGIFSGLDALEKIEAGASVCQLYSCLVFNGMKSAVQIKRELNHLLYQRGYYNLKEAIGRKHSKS
Description: as §1, with “buffer. P. falciparum was suspended in MSE buffer [225 mM mannitol, 75 mM sucrose, 0.1 mM ethylenediaminetetraacetic acid (EDTA), 3 mM Tris-HCl buffer, pH 7.4] containing 1 mM phenylmethylsulphonyl fluoride, and disrupted by nitrogen cavitation at 1200 psi using a 4639 Cell Disruption Bomb (Parr Instrument Company; Moline, IL, USA). The unbroken cells and cell debris were removed by centrifugation at 800× g for 5 min at 4 °C. The supernatant was centrifuged at 5000× g for 20 min at 4 °C.” for “buffer.”
Complex II, DHODH, MQO, NDH2, G3PDH, and dihydroorotate-cytochrome c (DHO-cyt c) reductase activities were measured, as described previously, using a V-660 spectrophotometer (JASCO; Tokyo, Japan). Briefly, complex II activity was measured at 25 °C in a 1 mL reaction mixture containing 45 μM 2,6-dichlorophenolidophenol (DCIP), 100 μM ubiquinone-2 (UQ2), and 2 mM KCN in 50 mM potassium phosphate buffer, pH 8.0. DHODH, MQO, and G3PDH activities were measured at 25 °C in 1 mL of the reaction mixture containing 45 μM DCIP, 100 μM UQ2, and 2 mM KCN in 30 mM Tris-HCl buffer, pH 8.0. Complex II, DHODH, MQO, and G3PDH activities were measured by monitoring the change in absorbance at 600 nm (reflecting DCIP reduction) after the reaction was initiated by adding 10 mM succinate, 500 μM dihydroorotate, 10 mM malate, or 500 μM glycerol-3-phosphate, respectively. NDH2 activity was measured at 25 °C in 1 mL of the reaction mixture containing 100 µM UQ1 and 2 mM KCN in 50 mM potassium phosphate buffer, pH 8.0. […]

[2] = system: malate:quinone oxidoreductase (MQO); experiment: MQO activity, crude mitochondrial fraction, DCIP reduction; type: biochemical, Plasmodium falciparum
Description: as §1, §2

[3] = biological target: mammalian complex I and III (Sus scrofa, UniProt F1RNZ1+P24964); experiment: NADH-cytochrome c reductase activity in porcine mitochondria; type: biochemical
Description: Porcine mitochondria were prepared as described previously. NADH-cytochrome c (NADH-cyt c) activity was measured at 25 °C in 1 mL of the reaction mixture containing 1 mM MgCl2, 2 mM KCN, and 20 μM cytochrome c in 30 mM potassium phosphate buffer, pH 7.5. Activity was measured by recording the absorbance change of cytochrome c at 550 nm after the reaction was initiated by the addition of 20 μM NADH. Various concentrations of siccanin dissolved in DMSO were added to reaction mixtures 5 min before the initiation of the reactions. Selectivity was calculated as the ratio of mammalian to P. falciparum IC50s.

[4] = system: Dd2_DDD (eEF2-Y186N mutation); experiment: Growth inhibition of Dd2_DDD (DDD107498-resistant); type: cell-based; details: Plasmodium falciparum, read-out: Growth inhibition EC50, DDD
Description: P. falciparum 3D7-yDHODH was prepared and maintained as described previously. P. falciparum Dd2, and Dd2-derived mutant strains were kindly provided by David A. Fidock, and maintained at Nagasaki University essentially as described in reference, except without supplementation with WR99210.
Synchronized ring-form parasites (0.3% parasitemia) were prepared in complete medium containing different concentration of various compounds (at a fixed final DMSO concentration of 0.1% (v/v)) and distributed to 96-well plates at 100 μL/well. After 72 h of incubation, parasite growth was monitored by the previously described lactate dehydrogenase (PfLDH)-based assay method; plates were read using a SpectraMax® Paradigm spectrophotometer (Molecular Devices, Inc.; San Jose, CA, USA). EC50 values were calculated using Prism® ver.6.01 (GraphPad; San Diego, CA, USA). Values are presented as the means of three independent experiments.

Sequence of mammalian complex I and III (F1RNZ1 entry or part of it): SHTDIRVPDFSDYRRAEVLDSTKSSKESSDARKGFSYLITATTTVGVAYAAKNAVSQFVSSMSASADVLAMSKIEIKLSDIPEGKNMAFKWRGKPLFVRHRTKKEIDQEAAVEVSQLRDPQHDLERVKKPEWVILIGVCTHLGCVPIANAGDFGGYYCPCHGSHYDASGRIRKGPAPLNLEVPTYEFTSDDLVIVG
Sequence of mammalian complex I and III (P24964 whole entry): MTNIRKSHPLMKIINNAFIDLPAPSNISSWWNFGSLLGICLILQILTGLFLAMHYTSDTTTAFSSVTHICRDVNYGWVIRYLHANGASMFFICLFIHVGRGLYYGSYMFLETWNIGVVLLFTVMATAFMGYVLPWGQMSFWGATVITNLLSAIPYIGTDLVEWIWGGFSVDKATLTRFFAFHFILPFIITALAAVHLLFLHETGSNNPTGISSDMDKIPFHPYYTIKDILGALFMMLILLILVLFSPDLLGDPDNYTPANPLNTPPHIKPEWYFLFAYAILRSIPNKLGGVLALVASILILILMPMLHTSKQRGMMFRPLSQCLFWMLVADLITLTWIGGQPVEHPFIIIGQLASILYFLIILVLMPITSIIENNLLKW
Sequence of mammalian complex I and III (F1SKM0 entry or part of it, further chain): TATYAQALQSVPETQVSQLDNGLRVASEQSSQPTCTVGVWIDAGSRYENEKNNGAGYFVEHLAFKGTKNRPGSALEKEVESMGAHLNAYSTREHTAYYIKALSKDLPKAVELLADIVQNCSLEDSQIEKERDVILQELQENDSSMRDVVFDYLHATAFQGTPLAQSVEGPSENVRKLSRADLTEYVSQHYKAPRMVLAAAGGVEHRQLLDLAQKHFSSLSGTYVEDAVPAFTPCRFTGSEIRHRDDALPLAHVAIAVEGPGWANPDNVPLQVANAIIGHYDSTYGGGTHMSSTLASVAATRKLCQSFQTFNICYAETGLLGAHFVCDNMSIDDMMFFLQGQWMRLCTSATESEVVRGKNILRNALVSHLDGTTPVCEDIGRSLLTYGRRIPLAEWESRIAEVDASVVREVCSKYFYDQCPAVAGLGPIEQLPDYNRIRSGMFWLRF
Sequence of P. falciparum complex II (Q8IJ66 entry or part of it): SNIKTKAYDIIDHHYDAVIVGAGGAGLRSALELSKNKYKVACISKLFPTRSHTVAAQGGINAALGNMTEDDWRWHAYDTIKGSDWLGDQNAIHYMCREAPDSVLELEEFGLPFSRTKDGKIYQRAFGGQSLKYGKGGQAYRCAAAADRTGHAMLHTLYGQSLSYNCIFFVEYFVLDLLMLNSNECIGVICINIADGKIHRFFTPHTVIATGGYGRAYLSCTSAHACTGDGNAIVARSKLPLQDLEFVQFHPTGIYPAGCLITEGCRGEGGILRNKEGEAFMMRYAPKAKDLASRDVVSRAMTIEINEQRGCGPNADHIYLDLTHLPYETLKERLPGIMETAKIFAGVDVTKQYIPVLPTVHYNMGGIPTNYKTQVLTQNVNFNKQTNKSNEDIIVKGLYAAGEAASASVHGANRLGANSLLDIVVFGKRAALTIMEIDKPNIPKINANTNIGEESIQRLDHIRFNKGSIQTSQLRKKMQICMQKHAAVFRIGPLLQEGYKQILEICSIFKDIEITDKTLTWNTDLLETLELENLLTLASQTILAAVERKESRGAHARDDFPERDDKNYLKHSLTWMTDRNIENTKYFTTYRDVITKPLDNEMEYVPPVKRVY
Sequence of P. falciparum complex II (Q8IJU2 entry or part of it): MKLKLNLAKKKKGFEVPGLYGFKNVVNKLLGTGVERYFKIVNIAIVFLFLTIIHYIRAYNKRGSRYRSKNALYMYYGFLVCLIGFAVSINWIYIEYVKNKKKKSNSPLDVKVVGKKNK
Sequence of P. falciparum complex II (Q8I5S5 entry or part of it): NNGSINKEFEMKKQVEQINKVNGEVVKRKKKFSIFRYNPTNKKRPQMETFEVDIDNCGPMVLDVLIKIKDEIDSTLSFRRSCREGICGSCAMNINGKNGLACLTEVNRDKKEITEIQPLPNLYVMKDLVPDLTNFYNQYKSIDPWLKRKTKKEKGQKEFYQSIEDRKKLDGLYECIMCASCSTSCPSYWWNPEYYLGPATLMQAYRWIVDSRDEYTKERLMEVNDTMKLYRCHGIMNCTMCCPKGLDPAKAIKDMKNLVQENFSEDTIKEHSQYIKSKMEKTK

Structure (SMILES): Cc1cc(O)c2c(c1)O[C@@]1(C)CC[C@H]3C(C)(C)CCC[C@]34CO[C@@H]2[C@H]41 [Siccanin]
- remaining activity at 10 µM (P. falciparum complex II): 2.7 ± 6.5%
- Effect on DHODH activity ([1]; 10 µM): did not inhibit
- Effect on DHODH activity ([1]; 60 μM): does not inhibit
- remaining activity at 10 µM ([1]; siccanin 10 μM, read-out: Relative residual activity of DHODH): 101 ± 8.1%
- Effect on MQO activity ([2]; 10 µM): did not inhibit
- Relative residual activity of MQO ([2]; siccanin 10 μM): 109.2 ± 2.0%
- Effect on mammalian complex I and III ([3]; concentrations as high as 500 µM): did not inhibit
- IC50 ([3]; read-out: Siccanin IC50, Mammal, Complex III, NADH-cytochrome c reductase, porcine mitochondria): > 500 µM
- EC50 [4]: 13.1 µM
